Source: patent US20230263822A1, “MODULATION OF FACTOR 11 EXPRESSION” (Ionis Pharmaceuticals, Inc., priority 2008, published 2023)
Strand notation (5' to 3'): a small letter for the sugar, then the base; units joined by * are phosphorothioate-linked, units joined directly phosphodiester-linked; [ ] holds rarer units or linkages, { } end groups; capitals alone tell only the bases. e = 2'-O-(2-methoxyethyl) (MOE); [5mC] = 5-methylcytosine; d = 2'-deoxy (DNA)

What was measured:
[1] = tested on: mouse Factor 11 mRNA; test: Cross-reactive antisense inhibition of murine Factor 11 in primary mouse hepatocytes, 100 nM (Example 9); type: cell-based; settings: ~24 hours
Method: Antisense oligonucleotides targeted to a murine factor 11 nucleic acid were tested for their effects on Factor 11 mRNA in vitro. Cultured primary mouse hepatocytes at a density of 10,000 cells per well were treated with 100 nM antisense oligonucleotide. After a treatment period of approximately 24 hours, RNA was isolated from the cells and mouse Factor 11 mRNA levels were measured by quantitative real-time PCR. Factor 11 mRNA levels were adjusted according to total RNA content, as measured by RIBOGREEN. Results are presented as percent inhibition of Factor 11, relative to untreated control cells.
The chimeric antisense oligonucleotides in Tables 16 were designed as 5-10-5 MOE gapmers. The gapmers are 20 nucleotides in length, wherein the central gap segment is comprised of 10 2′-deoxynucleotides and is flanked on both sides (in the 5′ and 3′ directions) by wings comprising 5 nucleotides each. Each nucleotide in the 5′ wing segment and each nucleotide in the 3′ wing segment has a 2′-MOE modification. The internucleoside linkages throughout each gapmer are phosphorothioate (P=S) linkages. All cytidine residues throughout each gapmer are 5-methylcytidines. “Mouse target start site” indicates the 5′-most nucleotide to which the gapmer is targeted. “Mouse target stop site” indicates the 3′-most nucleotide to which the gapmer is targeted. All the mouse oligonucleotides listed show cross-reactivity between the mouse Factor 11 mRNA (GENBANK Accession No. NM_028066.1), incorporated herein as SEQ ID NO: 6 and the human Factor 11 mRNA (GENBANK Accession No. NM_000128.3), incorporated herein as SEQ ID NO: 1. “Human Target Start Site” indicates the 5′-most nucleotide in the human mRNA (GENBANK Accession No. NM_000128.3) to which the antisense oligonucleotide is targeted. “Human Target Stop Site” indicates the 3′-most nucleotide in the human mRNA (GENBANK Accession No. NM_000128.3) to which the antisense oligonucleotide is targeted. “Number of mismatches” indicates the mismatches between the mouse oligonucleotide and the human mRNA sequence.

[2] = tested on: murine Factor 11 mRNA; test: In vivo antisense inhibition of murine Factor 11 mRNA in liver (Example 10); settings: BALB/c mice, relative to PBS control
Method: (§1) BALB/c mice were injected with 5 mg/kg, 10 mg/kg, 25 mg/kg, or 50 mg/kg of ISIS 404057 or ISIS 404071 twice a week for 3 weeks. A control group of mice was injected with phosphate buffered saline (PBS) twice a week for 3 weeks. Mice were sacrificed 5 days after receiving the last dose. Whole liver was harvested for RNA analysis and plasma was collected for clotting analysis (PT and aPTT) and protein analysis.
RNA was extracted from liver tissue for real-time PCR analysis of Factor 11. […] Results are presented as percent inhibition of Factor 11, relative to control.

[3] = tested on: blood coagulation; test: PT and aPTT assay in platelet poor plasma (Example 10); type: in vivo; settings: BALB/c mice
Method: as §1
Prothrombin Time (PT) and Activated Partial Thromboplastin Time (aPTT) were measured using platelet poor plasma (PPP) from mice treated with ISIS 404057 and ISIS 404071. PT and aPTT values provided in Table 18 are reported as International Normalized Ratio (INR) values. INR values for PT and aPTT were determined by dividing the PT or aPTT value for each experimental group (i.e. 5 mg/kg, 10 mg/kg, 25 mg/kg, and 50 mg/kg treatment with ISIS 404057 or ISIS 404071) by the PT or aPTT for the PBS treated group. This ratio was then raised to the power of the International Sensitivity Index (ISI) of the tissue factor used.

[4] = tested on: mouse Factor 11 mRNA; test: Sense-oligonucleotide antidote: Factor 11 mRNA in liver (Example 23); type: in vivo, BALB/c mice
Method: The effect of the specific sense oligonucleotide to ISIS 404071 as an antidote was tested in BALB/c mice. In a first cohort, ISIS 404071 was administered subcutaneously to BALB/c mice twice a week for three weeks at a dose of 40 mg/kg. In a second cohort, ISIS 404057 was administered subcutaneously to BALB/c mice twice a week for three weeks at a dose of 40 mg/kg. The ISIS 404071 specific antidote, ISIS 418026 ([…]; complementary to ISIS 404071), incorporated herein as SEQ ID NO: 13, was administered to both cohorts subcutaneously in a single injection of 90 mg/kg 48 hours after the final treatment of ISIS 404071 or 404057. In a third cohort, ISIS 404071 was administered subcutaneously to BALB/c mice twice a week for three weeks at a dose of 40 mg/kg. Following the last treatment of ISIS 404071, mice were injected subcutaneously injected with PBS. In a fourth cohort, ISIS 404057 was administered subcutaneously to BALB/c mice twice a week for three weeks at a dose of 40 mg/kg. Following the last treatment of ISIS 404057, mice were injected subcutaneously injected with PBS. Following antidote administration, a set of 4 mice from each cohort were sacrificed at 12 hours, 1 day, 2 days, 3 days, 7 days, and 14 days. Whole liver was collected for RNA analysis and PPP was collected for aPTT analysis.
RNA was extracted from liver tissue for real-time PCR analysis of Factor 11. Results are presented as percent inhibition of Factor 11, relative to PBS control.

[5] = Collagenase-induced intracerebral hemorrhage model: hemorrhage volume, neurologic deficit score, mortality (Example 25); type: in vivo, BALB/c mice
Method: In a first cohort, ISIS 404071 was administered subcutaneously to BALB/c mice twice a week for two weeks at a dose 40 mg/kg. […] In a third cohort, ISIS 421208 ([…], 8 mismatches to murine Factor 11, incorporated herein as SEQ ID NO: 14) was administered subcutaneously to BALB/c mice twice a week for two weeks at a dose 40 mg/kg. In a fourth cohort, PBS was administered to BALB/c mice twice a week for two weeks.
Two days after receiving their final dose, all mice in all cohorts were anesthetized with […] of avertin. Next, the mice were injected at −1 mm AP, 1 mm R ML, −4 mm DV from bregma flat skull with a 10 μL Hamilton syringe containing 0.075 U collagenase (150 U/mL). Collagenase was delivered over 5 minutes and the needle was kept in place for an additional 5 minutes to prevent reflux. The mice were then analyzed for hemorrhagic size, neurologic deficit score, and mortality.
Table 37 presents the hemorrhage volume detected in mice after collagenase treatment, Table 38 presents the neurologic deficit score of the mice, and Table 39 presents the mortality rate of the mice. Neurological deficit is measured by a standard scoring system where no deficiency is zero and severe deficit is five.

[6] = mouse, in vivo, sc, 50 mg/kg
[7] = mouse, in vivo, sc, 50 mg/kg; remark: listed apart in the source
[8] = mouse, in vivo, sc, 50 mg/kg; remark: listed apart in the source
[9] = 5 mg/kg twice a week for 3 weeks
[10] = 10 mg/kg twice a week for 3 weeks
[11] = 25 mg/kg twice a week for 3 weeks
[12] = 50 mg/kg twice a week for 3 weeks
[13] = 5-50 mg/kg twice a week for 3 weeks

**Q.** For “404050 (eT*eG*e[5mC]*eT*eT*dG*dA*dA*dG*dG*dA*dA*dT*dA*dT*e[5mC]*e[5mC]*eA*eG*eA; antisense) [compound 404050]”, which “% Inhibition of mouse Factor 11 mRNA levels” value [1] is on record?
**A.** 82%

**Q.** Which “% Inhibition of mouse Factor 11 mRNA levels” value [1] does the source give for “404054 (eT*eA*eG*eT*eT*d[5mC]*dA*dT*dG*d[5mC]*d[5mC]*d[5mC]*dT*dT*d[5mC]*eA*eT*eG*eT*e[5mC]; antisense) [compound 404054]” here?
**A.** 45%

**Q.** With “404055 (eT*eG*eT*eT*eA*dT*dA*dG*dT*dT*d[5mC]*dA*dT*dG*d[5mC]*e[5mC]*e[5mC]*eT*eT*e[5mC]; antisense) [compound 404055]” as the substance, how does the “% Inhibition of mouse Factor 11 mRNA levels” value [1] read?
**A.** 27%

**Q.** Which results are given for “404057 (eT*e[5mC]*e[5mC]*eT*eG*dG*d[5mC]*dA*dT*dT*d[5mC]*dT*d[5mC]*dG*dA*eG*e[5mC]*eA*eT*eT) [compound 404057]”?
**A.** % inhibition of murine Factor 11 mRNA [2, 9]: 40%; % inhibition of murine Factor 11 mRNA [2, 10]: 64%; % inhibition of murine Factor 11 mRNA [2, 11]: 85%; % inhibition of murine Factor 11 mRNA [2, 12]: 95%

**Q.** Which “% Inhibition of mouse Factor 11 mRNA levels” value [1] does the source give for “404066 (eA*eA*eT*eG*eT*d[5mC]*d[5mC]*d[5mC]*dT*dG*dA*dT*dA*d[5mC]*dA*eA*eG*e[5mC]*e[5mC]*eA; antisense) [compound 404066]” here?
**A.** 37%

**Q.** For “404067 (antisense eG*eG*eG*eA*eA*dA*dA*dT*dG*dT*d[5mC]*d[5mC]*d[5mC]*dT*dG*eA*eT*eA*e[5mC]*eA) [compound 404067]”, which “% Inhibition of mouse Factor 11 mRNA levels” value [1] is on record?
**A.** 39%

**Q.** Which “% inhibition of murine Factor 11 mRNA” value [2, 9] does the source give for “404071 (antisense eT*eG*eG*eT*eA*dA*dT*d[5mC]*d[5mC]*dA*d[5mC]*dT*dT*dT*d[5mC]*eA*eG*eA*eG*eG) [compound 404071]” here?
**A.** 72%

**Q.** What about the “% inhibition of murine Factor 11 mRNA” value [2, 10] of the same substance?
**A.** 82%

**Q.** What about the “% inhibition of murine Factor 11 mRNA” value [2, 11] of the same substance?
**A.** 93%

**Q.** What about the “% inhibition of murine Factor 11 mRNA” value [2, 12] of the same substance?
**A.** 96%

**Q.** For “404083 (antisense eT*eG*eT*eG*e[5mC]*dA*dG*dA*dG*dT*d[5mC]*dA*d[5mC]*d[5mC]*dT*eG*e[5mC]*e[5mC]*eA*eT) [compound 404083]”, which “% Inhibition of mouse Factor 11 mRNA levels” value [1] is on record?
**A.** 47%

**Q.** Which “% Inhibition of mouse Factor 11 mRNA levels” value [1] does the source give for “404087 (antisense eT*eT*e[5mC]*eT*eT*dG*dA*dA*d[5mC]*d[5mC]*d[5mC]*dT*dG*dA*dA*eG*eA*eA*eA*eG) [compound 404087]” here?
**A.** 29%

**Q.** With “404089 (antisense eT*eG*eA*eA*eT*dT*dA*dT*d[5mC]*dA*dT*dT*dT*d[5mC]*dT*eT*eG*eA*eA*e[5mC]) [compound 404089]” as the substance, how does the “% Inhibition of mouse Factor 11 mRNA levels” value [1] read?
**A.** 6%

**Q.** For “404090 (antisense eT*eG*eA*eT*e[5mC]*dA*dT*dG*dA*dA*dT*dT*dA*dT*d[5mC]*eA*eT*eT*eT*e[5mC]) [compound 404090]”, which “% Inhibition of mouse Factor 11 mRNA levels” value [1] is on record?
**A.** 42%

**Q.** Which results are given for “ISIS 404057: antisense oligonucleotide targeted to murine Factor 11 mRNA, TCCTGGCATTCTCGAGCATT, target start site 487 (antisense eT*e[5mC]*e[5mC]*eT*eG*dG*d[5mC]*dA*dT*dT*d[5mC]*dT*d[5mC]*dG*dA*eG*e[5mC]*eA*eT*eT)”?
**A.** PT INR [3, 9]: 1.00; aPTT INR [3, 9]: 1.07; PT INR [3, 10]: 0.94; aPTT INR [3, 10]: 1.19; PT INR [3, 11]: 1.02; aPTT INR [3, 11]: 1.27; PT INR [3, 12]: 1.00; aPTT INR [3, 12]: 1.37; PT [3, 13]: not significantly prolonged; aPTT [3, 13]: prolonged in a dose-dependent manner; Percent inhibition of mouse Factor 11 mRNA compared to PBS control ([4]; 3 days after antidote/PBS, antisense 40 mg/kg s.c. twice a week for three weeks, ISIS 418026 90 mg/kg single injection where given): 95%

**Q.** With “ISIS 418026: ISIS 404071 specific antidote, CCTCTGAAAGTGGATTACCA; complementary to ISIS 404071 (listed as DNA, chemistry not given here)” as the substance, how does the “inhibition of Factor 11 mRNA expression in ISIS 404057 treated mice” value ([4]; BALB/c mice, ISIS 404057 40 mg/kg then ISIS 418026 90 mg/kg) read?
**A.** had no effect on inhibition of Factor 11 mRNA expression

**Q.** What does the source list for “ISIS 421208: TCGGAAGCGACTCTTATATG, 8 mismatches to murine Factor 11 (listed as DNA, chemistry not given here) [reference compound]”?
**A.** Hemorrhagic volume after collagenase treatment ([5]; 40 mg/kg s.c. twice a week for two weeks): 41 mm^3; Neurologic Deficit Score after collagenase treatment ([5]; 40 mg/kg s.c. twice a week for two weeks, score zero (no deficiency) to five (severe deficit)): 2.0; % mortality after collagenase treatment ([5]; ISIS oligonucleotides 40 mg/kg s.c., warfarin 2 mg/kg intraperitoneally, twice a week for two weeks): 0%

**Q.** Which results are given for “ISIS 445503: 5-8-5 or 6-8-6 MOE microwalk gapmer (Table 44) (antisense GCATTGGTGCACAGTTTCTG; sugars from the 5' end e6 d8 e6, backbone and methylation of C not given here)”?
**A.** ALT [6]: 1314 IU/L; AST [6]: 852 IU/L; Albumin [6]: 3.4; Bilirubin [6]: 0.28 mg/dL; BUN [7]: 29 mg/dL; HCT [8]: 46%; Lymphocyte [8]: 6436; Neutrophil [8]: 1475; Platelets [8]: 309; RBC [8]: 9.2; WBC [8]: 8; hemoglobin [8]: 13.6 g/dL
